The values that follow come from patent US20240043527A1 (BioNTech SE, priority 2020, published 2024).

A word on the pKa: it is the negative logarithm of the acid dissociation constant. Usually EC50 stands for the concentration giving half of the maximal effect.

Data set [1] relates to pancreatic cancer cell lines. Particulars: cited from earlier work; for de novo CLDN-18.2 expression: CLDN-18.2-negative cell lines; for CLDN-18.2 expression levels: pancreatic cancer cell lines with existing expression.
Data set [2] in a line: Apparent pKa of the amino lipid. Format: physicochemical.
In data set [3] the test system is locally advanced, unresectable or metastatic pancreatic cancer. Particulars: erlotinib versus placebo; cited from earlier work.
The subject of the next data set is advanced BTC. Particulars: first-line treatment of advanced disease; cited from earlier work.
A further data set deals with PDAC. The note with it: metastasized stage; Conroy et al. 2011; cited from earlier work.
Data set [4] concerns the target CLDN-18.2+ NUG-C4 transfectants. Briefly: In vitro ADCC assay (luciferase-based). The note with it: human PBMCs from three donors, E:T 30:1, 48 hours. Format: cell-based, human. How it is done:
RiboMab01-containing cell culture supernatant from CHO-K1 cells lipofected with RB_RMAB01 was subjected to (Panel A) ADCC and (Panel B) CDC assays. […] Human PBMCs of three different healthy donors were utilized as effector cells (E:T ratio 30:1). Target or control and effector cells were incubated for 48 hours with the indicated RiboMab01 and IMAB362 reference protein concentrations. Specific cell lysis as determined in a luciferase-based assay is shown. […] Target and control cells were incubated with human serum and RiboMab01 concentrations as indicated for 2 hours. CDC determined in a luciferase-based assay is shown. Error bars are standard errors of the mean (n=3).
Mode of action analysis: Antibody-dependent cellular cytotoxicity (ADCC) and complement-dependent cytotoxicity (CDC) in vitro. […] To simulate in vivo conditions, human PBMCs from three different healthy donors were used as effector cells in ADCC assays in an effector to target (E:T) ratio of 30:1 and human serum (e.g., commercially available human serum) was used as a source of complement in CDC assays.

Data set [5] relates to CLDN-18.2+ NUG-C4 transfectants. Description: Ex vivo ADCC assay with serum of dosed non-human primates. Particulars: serum of monkey No. 14 (1.6 mg/kg) 48 hours after 3rd dosing or recombinant reference protein; 48 hours incubation. The class given is cell-based. Here is the method:
(§1) Non-Human Primates (NHP) received three repetitive doses of 0.1, 0.4 or 1.6 mg/kg RB_RMAB01 once weekly. RiboMab01-containing serum of all monkeys sampled 24 hours (black bars) and 168 hours (white bars) post 1st injection was directed to luciferase-based ex vivo ADCC assays. […] Human PBMCs from two different healthy donors (24 h, donor 1, 168 h, donor 2) served as effector cells. (Panel A) RiboMab01-mediated ADCC of NUG-C4 cells after 48 hours incubation is shown. (Panel B) Unspecific lysis on target-negative MDA-MB-231 cells is shown. Error bars are standard error of the mean (n=3). (Panel C) Serum of NHP No. 14 (1.6 mg/kg RB_RMAB01, RiboMab01 serum concentration 232 μg/mL) collected 48 hours after the 3rd dosing was used for a luciferase-based ex vivo ADCC assays. […] Human PBMCs of a healthy donor served as effector cells. […] Incubation time was 48 hours. Error bars are standard errors of the mean (n=3).
(§2) ADCC assays were performed as described in Example 2. […] Purified IMAB362 served as assay reference protein.

For a further data set, the system named is MDA-MB-231 cells. Description: Ex vivo ADCC assay with serum of dosed non-human primates, target-negative control cells. The class given is cell-based. The note with it: FIG. 5 Panel C dilution row. Here is the method:
as §1, §2

The conditions of data set [6]: cited from earlier work.
In data set [7] the test system is gastric and gastro-esophageal cancer. Particulars: cited from earlier work.
The subject of a further data set is CLDN-18.2+ cells. Particulars: in serum; Sahin et al. 2018; cited from earlier work.
Data set [8] deals with first extracellular domain (ECD1) of CLDN-18.2 (Homo sapiens, UniProt P56856). Particulars: cited from earlier work.
The conditions of data set [9]: cited from earlier work. The source holds these as a separate data set.
[10] abbreviates: ≥70% CLDN-18.2 expression subset, vs EOX, p<0.0005.

With `O=c1[nH]cc(F)c(=O)[nH]1` [5-fluorouracil], in data set [1], the “de novo CLDN-18.2 expression” value is listed as “not observed to increase de novo expression” and the CLDN-18.2 expression levels entry is given as “upregulate existing CLDN-18.2 expression levels”.

Regarding `CCCCCCC(CCCC)C(=O)OCCCCCCCCCN(CCCO)CCCCCCCCCOC(=O)C(CCCC)CCCCCC` (stereo not shown) [Cationic Lipid A, ((3-Hydroxypropyl)azanediyl)bis(nonane-9,1-diyl)bis(2-butyloctanoate)], the pKa in [2] was ~6.25.

As for `C#Cc1cccc(Nc2ncnc3cc(OCCOC)c(OCCOC)cc23)c1` [erlotinib], in [3], the “median overall survival (OS) benefit” value is reported as 0.4 month and the “median progression-free survival (PFS) benefit” value is recorded as 0.3 month.

Take `Nc1ccn([C@@H]2O[C@H](CO)[C@@H](O)C2(F)F)c(=O)n1` [gemcitabine]: in data set [1], the “de novo CLDN-18.2 expression” value is given as “not observed to increase de novo expression” and the CLDN-18.2 expression levels result is recorded as “upregulate existing CLDN-18.2 expression levels”. Further, the “median OS” value with advanced BTC is listed as 8.1 months.

As for `O=C1[O][Pt]2([NH][C@@H]3CCCC[C@H]3[NH]2)[O]C1=O` [oxaliplatin], in [1], the “de novo CLDN-18.2 expression” value is “not observed to increase de novo expression” and the CLDN-18.2 expression levels result is listed as “upregulate existing CLDN-18.2 expression levels”.

Regarding FOLFIRINOX, in the data set on PDAC, the “median survival compared to gemcitabine alone” value was “nearly double median survival”.

On to “IMAB362: full IgG1 monoclonal antibody targeting CLDN-18.2; used as recombinant reference protein”, for which the “ADCC EC50” value in [4] lay in the range of 0.014 to 0.265 µg/mL. The EC50 in data set [5] stood at 0.151 nM. For the same molecule, the “unspecific lysis on control cells” value in the data set with MDA-MB-231 cells is listed as “weak unspecific lysis”. For the same molecule, in data set [6] (12 patients, 600 mg/m^2 dose), the “patients with grade 3 vomiting” value was 22%. Besides, in data set [6] (TEAE), the patients with fatigue is 22%, the patients with nausea was 61% and the patients with vomiting is listed as 50%. In addition, the “patients with grade 3 nausea” value in data set [6] (eight patients, 600 mg/m^2 dose) is listed as 15%. Besides, the “patients with treatment emergent adverse events (TEAEs)” value in data set [6] (n=44/54) is recorded as 82%. Also, the “change of median overall survival” value in data set [7] (patients with ≥70% of tumor cells with ≥2+ CLDN-18.2 staining) is recorded as “near-doubling”. For the same molecule, in data set [7] (setting [10]), the “benefit in overall survival (OS)” value was 33.1 weeks and the “delay in central independent reviewed progression” value is given as 14.5 weeks. Besides, the “ADCC EC95 (concentration that gives 95% response)” value in the data set with CLDN-18.2+ cells was 0.3 to 28 µg/mL. For the same molecule, in [8], the “binding to other claudin family members including CLDN18.1” value is “does not bind”; the “recognition of ECD1 of CLDN-18.2” value was “high affinity and specificity”. Further, the cmax result in data set [9] (repeated doses up to 1000 mg/m^2 q3w) is recorded as “up to 603 μg/mL”. Besides, the “tolerability across various trials” value in [9] (single agent and in combination with chemotherapy) is reported as “well tolerated”.
